Reference: publication PMC6155831, “Promising Inhibitory Effects of Anthraquinones, Naphthopyrone, and Naphthalene Glycosides, from Cassia obtusifolia on α-Glucosidase and Human Protein Tyrosine Phosphatases 1B” (Molecules : A Journal of Synthetic Chemistry and Natural …, 2016)

Assays:
α-glucosidase = system: α-glucosidase; set-up: method as in doi:10.1007/s10600-012-0275-4, PMID 25142941; conditions: from the EtOAc fraction of the methanolic extract of C. obtusifolia; cited from earlier work
Yeast α-glucosidase [1] = experiment: α-Glucosidase inhibitory assay with pNPG as substrate; format: biochemical; conditions: test concentration up to 400 µg/mL in 10% DMSO, triplicate
Method: Enzyme inhibition assays were carried out spectrophotometrically using a procedure reported by Li et al.. A 60 μL reaction mixture containing 20 μL of 100 mM phosphate buffer (pH 6.8), 20 μL of 2.5 mM pNPG, and 20 μL of sample (test concentration up to 400 μg/ml for compounds) dissolved in 10% DMSO was added to each well, followed by the addition of 20 μL of α-glucosidase (0.2 U/mL in 10 mM phosphate buffer (pH 6.8)). The plate was incubated at 37 °C for 15 min, and then 80 μL of 0.2 M sodium carbonate solution was added to stop the reaction. Right after that, the absorbance was recorded at 405 nm using a VERSA max microplate reader (Molecular Devices, Sunnyvale, CA, USA). The control contained the same reaction mixture with the same volume of phosphate buffer instead of sample solution. […] The percent inhibition (%) was obtained using the following equation: % Inhibition = (Ac − As)/Ac × 100, where Ac is the absorbance of the control, and As is the absorbance of the sample.

[2] = biological target: T1, PTP1B (human recombinant) (Homo sapiens, UniProt P18031); experiment: Protein tyrosine phosphatase 1B (PTP1B) inhibition assay with pNPP as substrate; format: biochemical; conditions: for PTP1B IC50 (Mean ± SEM) / IC50: pNPP substrate, test concentration up to 100 µg/mL in 10% DMSO, triplicate; for IC50: read-out: PTP1B IC50 (Mean ± SEM) (converted)
T1 construct: purchased Biomol International LP (Plymouth Meeting, PA, USA)
T1 sequence (P18031 1-435): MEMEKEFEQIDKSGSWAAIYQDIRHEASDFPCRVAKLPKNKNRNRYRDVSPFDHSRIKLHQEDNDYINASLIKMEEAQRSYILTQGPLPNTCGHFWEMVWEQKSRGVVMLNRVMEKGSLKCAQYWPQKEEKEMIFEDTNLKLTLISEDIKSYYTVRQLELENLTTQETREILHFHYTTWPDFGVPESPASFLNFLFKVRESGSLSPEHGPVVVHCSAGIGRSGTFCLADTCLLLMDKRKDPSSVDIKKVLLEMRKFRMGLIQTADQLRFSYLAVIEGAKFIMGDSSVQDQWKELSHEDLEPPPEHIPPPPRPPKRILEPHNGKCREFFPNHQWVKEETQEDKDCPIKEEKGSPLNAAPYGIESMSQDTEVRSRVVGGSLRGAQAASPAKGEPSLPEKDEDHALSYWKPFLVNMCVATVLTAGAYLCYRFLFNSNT
Method: The PTP1B inhibitory activities were evaluated using p-nitrophenyl phosphate as the substrate (pNPP) in a procedure reported by Cui et al.. Each well of a 96-well plate (final volume 100 μL) contained were 40 μL of PTP1B enzyme (0.5 units diluted with a PTP1B reaction buffer containing 50 mM citrate (pH 6.0), 0.1 M NaCl, 1 mM EDTA, and 1 mM dithiotheritol (DTT)), to which sample (test concentration up to 100 μg/mL) dissolved in 10% DMSO was or was not added. The plate was pre-incubated at 37 °C for 10 min, and then 50 μL of 2 mM pNPP in PTP1B reaction buffer was added. Following incubation at 37 °C for 30 min, the reaction was terminated with the addition of 10 M NaOH. The amounts of p-nitrophenyl produced after enzymatic dephosphorylation from pNPP was estimated by measuring the absorbance at 405 nm using microplate spectrophotometer (Molecular Devices). The non-enzymatic hydrolysis of 2 mM pNPP was corrected by measuring the increase in absorbance at 405 nm obtained in the absence of PTP1B enzyme. The percent inhibition (%) was obtained by the following equation: % inhibition = (Ac − As)/Ac × 100, where Ac is the absorbance of the control, and As is the absorbance of the sample.

[3] = biological target: T1, PTP1B (human recombinant); experiment: Enzyme kinetic analysis of PTP1B inhibition (Dixon and Lineweaver-Burk plots); format: biochemical
Method: (§1) Since the Ki value represents the concentration needed to form an enzyme-inhibitor complex, this value plays an important role in the development of preventive and therapeutic agents.
(§2) In order to determine the inhibition mechanism, enzymatic inhibition at various concentrations of alaternin was evaluated by monitoring the effects of different concentrations of the substrates via Dixon plots (single reciprocal plot). Dixon plots of inhibition of PTP1B by alaternin were obtained in the presence of different concentrations of substrate: 1.0, 0.5, and 0.25 mM of pNPP. The test concentrations of alaternin in the PTP1B kinetic analysis were 0, 0.8, and 4.0 µM. Dixon plots of α-glucosidase inhibition by alaternin were performed in the presence of different concentrations of substrate: 2.5, 1.25, and 0.625 mM of pNPG. The test concentrations of alaternin used in the α-glucosidase kinetic analysis were 0.97, 1.95, and 3.90 µM. Both enzymatic procedures consisted of the same, aforementioned PTP1B and α-glucosidase assay methods. The inhibition constants (Ki) were determined by interpretation of the Dixon plots, where the value of the x-axis implies −Ki.

Yeast α-glucosidase [4] = experiment: Enzyme kinetic analysis of α-glucosidase inhibition (Dixon and Lineweaver-Burk plots); format: biochemical; conditions: for Inhibition type α-Glucosidase: Dixon plot and Lineweaver-Burk plot
Method: as §1, §2

[5] = system: insulin-resistant HepG2 cells; experiment: 2-NBDG glucose uptake assay in insulin-resistant HepG2 cells; format: cell-based, human; conditions: 12.5, 25, and 50 μM alaternin, 24 h, compared to the control
Method: The HepG2 (human hepatocarcinoma) cell line was purchased from the American Type Culture Collection (HB-8065, Manassas, VA, USA). Cells were maintained in MEM containing 2.0 mM L-glutamine, 0.1 mM non-essential amino acids, 1.0 mM sodium pyruvate, and 10% FBS at 37 °C in a humidified atmosphere with 5% CO2. The medium was changed every 48 h. […] The establishment of an insulin-resistant HepG2 cell model and glucose uptake was performed according to the reported method, with slight modifications. Briefly, HepG2 cells were cultured in 96-well cluster plates. After reaching confluence, the cells were treated with 10^−6 mol/L insulin for 24 h to induce insulin resistance. […] After this incubation, the 2-NBDG uptake in insulin-resistant HepG2 cells was measured. The cells were incubated with 40 μM 2-NBDG for 30 min. To stop the response, cells were washed with ice-cold PBS and the fluorescence intensity of 2-NBDG was measured on a Synergy HT microplate reader (BioTek Instruments, Winooski, VT, USA) at 485 nm excitation and 528 nm emission. Six replicate wells were established and each experiment was repeated three times.

HepG2 cells = experiment: MTT cytotoxicity assay on HepG2 cells; conditions: HepG2 cells, MTT, 24 h
Method: Before determining the insulin resistance of alaternin and emodin, the cytotoxicity of alaternin and emodin on HepG2 cells was first measured by the MTT assay. […] To investigate the ability of alaternin and emodin to increase glucose uptake, a 2-[N-(7-nitrobenz-2-oxa-1,3-diazol-4-yl) amino]-2-deoxy-D-glucose (2-NBDG) uptake assay was performed with insulin-resistant HepG2 cells.

PTP1B = system: PTP1B; set-up: method as in earlier work; conditions: cited from earlier work

SMILES	α-glucosidase inhibitory activity (reported) (α-glucosidase)	α-Glucosidase IC50 (Mean ± SEM) (Yeast α-glucosidase [1]) [µg/mL]	PTP1B IC50 (Mean ± SEM) [2] [µg/mL]	IC50 [2] [µM]	also measured
COc1cc(C)cc2c1C(=O)c1c(O)cc(O)cc1C2=O [1-O-methylemodin]	inactive	–	–	–	–
COc1c(O)c(O)cc2c1C(=O)c1c(O)cc(C)cc1C2=O [2-Hydroxyemodin-1 methylether]	–	5.65 ± 0.20	5.22 ± 0.29	–	–
COc1cccc2c1C(=O)c1c(O)cc(C)cc1C2=O [8-O-methyl chrysophanol]	α-glucosidase inhibitors	–	–	–	–
Cc1cc2c(c(O)c1O)C(=O)c1c(O)cc(O)cc1C2=O [Alaternin, 2-hydroxy emodin]	–	0.99 ± 0.02	–	4.26	Inhibition type PTP1B ([3]; Dixon plot and Lineweaver-Burk plot): Competitive; Ki ([3]; Dixon plot, pNPP 1.0, 0.5, 0.25 mM): 1.7 µM; Inhibition type α-Glucosidase (Yeast α-glucosidase [4]): mixed type; Inhibition type α-Glucosidase (Yeast α-glucosidase [4]; listed as alaternin): Mixed; Ki (Yeast α-glucosidase [4]; Dixon plot, pNPG 2.5, 1.25, 0.625 mM): 0.66 µM; insulin-stimulated uptake of 2-NBDG [5]: significantly enhanced; PTP1B inhibitory activity compared with emodin ([2]; fold higher than emodin): three-fold higher; concentration without any cytotoxicity (HepG2 cells): up to 50 µM
O=C1c2cccc(O)c2C(=O)c2c(O)cc(CO)cc21 [Aloe-emodin]	–	1.40 ± 0.27	–	207	–
COc1c(O)cc2c(c1O)C(=O)c1c(cc(C)c(O)c1OC)C2=O [Aurantio-obtusin]	inactive	41.20 ± 0.17	–	82.3	–
COc1cc2c(c(OC)c1OC)C(=O)c1c(cc(C)c(O[C@@H]3O[C@H](CO)[C@@H](O)[C@H](O)[C@H]3O)c1OC)C2=O [Chryso-obtusin-2-glucoside, chryso-obtusin-2-O-β-D-glucoside]	–	178.85 ± 0.55	39.34 ± 1.07	–	–
COc1cc2c(c(OC)c1OC)C(=O)c1c(cc(C)c(O)c1OC)C2=O [Chryso-obtusin]	α-glucosidase inhibitors	36.01 ± 0.89	–	41.5	–
Cc1cc(O[C@@H]2O[C@H](CO[C@@H]3O[C@H](CO)[C@@H](O)[C@H](O[C@@H]4O[C@H](CO[C@@H]5O[C@H](CO)[C@@H](O)[C@H](O)[C@H]5O)[C@@H](O)[C@H](O)[C@H]4O)[C@H]3O)[C@@H](O)[C@H](O)[C@H]2O)c2c(c1)C(=O)c1cccc(O)c1C2=O [Chrysophanol tetraglucoside]	–	228.79 ± 0.91	103.89 ± 1.22	–	–
Cc1cc(O[C@@H]2O[C@H](CO[C@@H]3O[C@H](CO)[C@@H](O)[C@H](O[C@@H]4O[C@H](CO)[C@@H](O)[C@H](O)[C@H]4O)[C@H]3O)[C@@H](O)[C@H](O)[C@H]2O)c2c(c1)C(=O)c1cccc(O)c1C2=O [Chrysophanol triglucoside]	–	197.06 ± 1.09	80.17 ± 1.77	–	–
Cc1cc(O)c2c(c1)C(=O)c1cccc(O)c1C2=O [Chrysophanol]	–	46.81 ± 0.12	–	23	PTP1B inhibition (previous reports) (PTP1B): inhibited PTP1B
